Measured values from article PMC7044277 (Nature Communications, 2020).
Where “and” joins values, the source holds several entries; their conditions need not be identical. Equal values may be shown once.

Columns and labels:
Type in all cases: cell-based
320 non-olfactory GPCRs [1] = biological target: T1, 320 non-olfactory GPCRs (Homo sapiens, UniProt P35348)
T1 construct: expressed in transfected cells; host or cells: HTLA cells

320 non-olfactory GPCRs [2] = biological target: T2, 320 non-olfactory GPCRs (Homo sapiens, UniProt P18089)
T2 construct: expressed in transfected cells; host or cells: HTLA cells

320 non-olfactory GPCRs [3] = biological target: T3, 320 non-olfactory GPCRs (Homo sapiens, UniProt Q15077); details: receptor P2RY6; replicate values, Fig_4g
T3 construct: expressed in transfected cells; host or cells: HTLA cells

320 non-olfactory GPCRs [4] = biological target: T4, 320 non-olfactory GPCRs (Homo sapiens, UniProt P29274)
T4 construct: expressed in transfected cells; host or cells: HTLA cells
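For Fold of Basal in this document: compound tested at 1 µM final concentration.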
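For GPCRome agonism screen response in this document: fold over basal response of each receptor without drug.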

T3 sequence (Q15077 whole entry): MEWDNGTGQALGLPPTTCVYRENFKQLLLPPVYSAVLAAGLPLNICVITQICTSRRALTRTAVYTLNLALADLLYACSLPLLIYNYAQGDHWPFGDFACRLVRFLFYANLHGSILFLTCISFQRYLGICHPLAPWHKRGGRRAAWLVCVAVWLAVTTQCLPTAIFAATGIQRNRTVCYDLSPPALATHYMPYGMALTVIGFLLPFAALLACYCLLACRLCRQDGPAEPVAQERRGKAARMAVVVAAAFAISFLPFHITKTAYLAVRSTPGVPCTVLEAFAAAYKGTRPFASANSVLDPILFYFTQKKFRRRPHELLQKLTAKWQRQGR
T2 sequence (P18089 whole entry): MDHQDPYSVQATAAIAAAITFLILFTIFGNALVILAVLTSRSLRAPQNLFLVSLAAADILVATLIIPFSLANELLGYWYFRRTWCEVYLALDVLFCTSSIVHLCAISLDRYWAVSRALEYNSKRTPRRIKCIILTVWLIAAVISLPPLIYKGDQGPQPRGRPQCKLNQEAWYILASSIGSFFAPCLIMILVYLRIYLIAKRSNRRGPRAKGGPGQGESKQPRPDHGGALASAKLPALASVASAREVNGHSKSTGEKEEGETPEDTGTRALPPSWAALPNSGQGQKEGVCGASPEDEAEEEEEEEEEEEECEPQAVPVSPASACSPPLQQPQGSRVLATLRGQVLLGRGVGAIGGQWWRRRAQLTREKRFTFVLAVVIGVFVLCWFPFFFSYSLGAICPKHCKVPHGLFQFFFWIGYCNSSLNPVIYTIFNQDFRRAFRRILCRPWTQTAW
T4 sequence (P29274 whole entry): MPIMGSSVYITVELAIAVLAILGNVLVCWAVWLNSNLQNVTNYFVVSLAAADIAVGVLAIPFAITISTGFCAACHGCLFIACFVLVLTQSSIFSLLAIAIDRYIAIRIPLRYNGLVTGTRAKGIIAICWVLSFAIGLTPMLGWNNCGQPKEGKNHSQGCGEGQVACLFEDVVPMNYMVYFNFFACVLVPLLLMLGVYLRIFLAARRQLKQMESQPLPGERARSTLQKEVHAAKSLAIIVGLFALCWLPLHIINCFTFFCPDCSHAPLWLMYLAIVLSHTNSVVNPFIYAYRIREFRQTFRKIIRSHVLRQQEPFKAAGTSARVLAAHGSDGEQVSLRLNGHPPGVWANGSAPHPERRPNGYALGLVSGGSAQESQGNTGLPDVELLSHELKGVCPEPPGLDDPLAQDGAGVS
T1 sequence (P35348 whole entry): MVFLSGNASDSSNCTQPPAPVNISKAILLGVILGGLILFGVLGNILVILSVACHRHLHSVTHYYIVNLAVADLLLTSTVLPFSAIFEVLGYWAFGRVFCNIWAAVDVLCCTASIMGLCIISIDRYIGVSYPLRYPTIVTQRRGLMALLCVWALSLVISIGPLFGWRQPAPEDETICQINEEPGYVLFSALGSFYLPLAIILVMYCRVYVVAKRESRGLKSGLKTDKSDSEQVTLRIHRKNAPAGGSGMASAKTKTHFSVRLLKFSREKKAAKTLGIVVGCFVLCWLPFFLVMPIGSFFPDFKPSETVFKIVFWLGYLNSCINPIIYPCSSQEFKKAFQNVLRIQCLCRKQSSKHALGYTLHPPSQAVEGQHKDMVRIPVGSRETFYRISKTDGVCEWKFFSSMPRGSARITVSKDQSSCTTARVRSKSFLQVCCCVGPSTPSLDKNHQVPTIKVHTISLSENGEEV

CCOc1cccc2cc(C(C)NCC3(O)CCCCC3)oc12 (stereo not shown) [O4LE6]
Fold of Basal (320 non-olfactory GPCRs [1]): 1.536 and 0.8942 and 1.241 and 1.268
Fold of Basal (320 non-olfactory GPCRs [2]): 0.5251 and 0.72 and 0.7774 and 1.019
GPCRome agonism screen response (320 non-olfactory GPCRs [3]): 0.88 and 0.9723 and 0.9546 and 1.27
Fold of Basal (320 non-olfactory GPCRs [4]): 0.5279 and 0.6435 and 0.5264 and 0.5735
